From US20250320206A1, “STAT6 DEGRADERS” (Gilead Sciences, Inc., priority 2024, published 2025) come the findings set out here.

For orientation: EC50 means the midpoint of the concentration-response curve. The low end stands for a more potent agent, the high end for a less potent agent.

This assay concerns Eotaxin-3 release in human whole blood stimulated with IL-4. As to the kind of experiment: Human Whole Blood Eotaxin-3 Assay (IL-4 stimulated eotaxin-3 release). The settings on record: IL-4 stimulation, 48 h, values given for compounds with >80% Emax, geometric mean. It counts as cell-based. How it is done:
Human Whole Blood Eotaxin-3 Assay
This was a human whole blood assay using recombinant human Interleukin 4 to stimulate the blood and measuring the ability of the test compounds to inhibit eotaxin-3 release. The biological activities of the test compounds have been tested in human whole blood stimulated with IL-4 measuring Eotaxin-3 release. The test compounds were added to 384 well clear flat-bottom plate in a 4-fold serial dilution in triplicates using a liquid handler. Human whole blood stabilized in lithium-heparin tubes was added in a volume of 65 μL per well, resulting in a final DMSO concentration of 0.5%. The plate is incubated for 2 h at 37° C. under 5% CO2/95% air. Subsequently, 5 μL of recombinant human IL-4 (R&D Systems, cat #204-ILB) was added to the wells to a final concentration of […]. The plate was incubated for 48 h at 37° C. under 5% CO2/95% air. The plate was spun down for 10 minutes at 500×g and 20 μL supernatant was harvested and transferred to a 384 well v-bottom plate using a liquid handler and stored at −20° C. until further analysis. 10 μL supernatant was used to measure the level of Eotaxin-3 (CCL26) using Human Eotaxin-3 MSD kit from Mesocsale (Cat #K251UEK-4). The assay was performed according to the manufacture instructions.
The data from the human whole blood eotaxin-3 assay is shown in FIG. 2 for Examples 3u208, 3u246, 3u118, 3u119, 3u120, and 3u74 (where the effect in % is plotted against the test concentration in M on a log scale).
As for `CNc1cc(=O)n(-c2ccnc3c2cc([C@H](C)N2CC=C(c4c(C)cc(C(=O)N5CCC(CN6CCN(c7ccc8c(c7)C7(CC7)C(=O)N8[C@H]7CCC(=O)NC7=O)C[C@@H]6C)CC5)cc4F)CC2)n3C)cc1F` (single isomer, unassigned) [Example 3u65], the EC50 is 93.5 nM.
In turn, `CNc1ccn(-c2ccnc3c2cc(CN2CCC(c4c(F)cc(C(=O)N5CCC(CN6CCN(c7ccc8c(c7)C7(CC7)C(=O)N8[C@@H]7CCC(=O)NC7=O)CC6)CC5)cc4F)CC2)n3C)c(=O)c1` (single isomer, unassigned) [Example 3u150] gave an EC50 of 39.2 nM.
For `CNc1ccn(-c2ccnc3c2cc([C@H](C)N2CC=C(c4c(C)cc(C(=O)N5CCC(CN6CCN(c7ccc8c(c7)C(C)(C)C(=O)N8[C@H]7CCC(=O)NC7=O)CC6)CC5)cc4F)CC2)n3C)c(=O)c1` (single isomer, unassigned) [Example 3u280], the EC50 came out at 12.8 nM.
As for `CNc1cc(=O)n(-c2ccnc3c2cc(CN2CCC(c4c(F)cc(C(=O)N5CCC(CN6CCN(c7ccc8c(c7)C7(CC7)C(=O)N8[C@H]7CCC(=O)NC7=O)CC6)CC5)cc4F)CC2)n3C)cc1F` (single isomer, unassigned) [Example 3u288], the EC50 is 88.3 nM.
In the case of `CNc1cc(=O)n(-c2ccnc3c2cc(CN2CCC(c4c(F)cc(C(=O)N5CCC(CN6CCN(c7ccc8c(c7)C7(CC7)C(=O)N8[C@@H]7CCC(=O)NC7=O)CC6)CC5)cc4F)CC2)n3C)cc1F` (single isomer, unassigned) [Example 3u289], the response was half-maximal at 18.9 nM (EC50).
In turn, `CNc1ccn(-c2ccnc3c2cc(CN2CCC(c4c(F)cc(C(=O)N5CCC(CN6CCN(c7cc8c(cc7F)n(C7CCC(=O)NC7=O)c(=O)n8C)CC6)CC5)cc4F)CC2)n3C)c(=O)n1` (stereo not drawn) [Example 3h43, 3-(5-(4-((1-(3,5-difluoro-4-(1-((1-methyl-4-(4-(methylamino)-2-oxopyrimidin-1 (2H)-yl)-1H-pyrrolo[2,3-b]pyridin-2-yl)methyl)piperidin-4-yl)benzoyl)piperidin-4-yl)methyl)piperazin-1-yl)-6-fluoro-3-methyl-2-oxo-2,3-dihydro-1H-benzo[d]imidazol-1-yl)piperidine-2,6-dione] gave an EC50 of 7.4 nM.
`C[C@H]1CN(Cc2ccc3c(c2)n(C)c(=O)n3C2CCC(=O)NC2=O)CCN1CC1CCN(C(=O)c2cc(F)c(C3=CCN([C@@H](C)c4cc5c(-n6cc(F)c7c(c6=O)CCN7)ccnc5n4C)CC3)c(F)c2)CC1` (stereo partly drawn) [Example 3u8, 3-(5-(((S)-4-((1-(3,5-difluoro-4-(1-((S)-1-(4-(7-fluoro-4-oxo-1,2,3,4-tetrahydro-5H-pyrrolo[3,2-c]pyridin-5-yl)-1-methyl-1H-pyrrolo[2,3-b]pyridin-2-yl)ethyl)-1,2,3,6-tetrahydropyridin-4-yl)benzoyl)piperidin-4-yl)methyl)-3-methylpiperazin-1-yl)methyl)-3-methyl-2-oxo-2,3-dihydro-1H-benzo[d]imidazol-1-yl)piperidine-2,6-dione] gave an EC50 of 5.9 nM.
Consider `C[C@@H](c1cc2c(-n3cc(F)c4c(c3=O)CCN4)ccnc2n1C)N1CC=C(c2c(F)cc(C(=O)N3CCC(CN4CCN(Cc5ccc6c(c5)n(C)c(=O)n6C5CCC(=O)NC5=O)CC4)CC3)cc2F)CC1` (stereo partly drawn) [Example 3u83, 3-(5-((4-((1-(3,5-difluoro-4-(1-((S)-1-(4-(7-fluoro-4-oxo-1,2,3,4-tetrahydro-5H-pyrrolo[3,2-c]pyridin-5-yl)-1-methyl-1H-pyrrolo[2,3-b]pyridin-2-yl)ethyl)-1,2,3,6-tetrahydropyridin-4-yl)benzoyl)piperidin-4-yl)methyl)piperazin-1-yl)methyl)-3-methyl-2-oxo-2,3-dihydro-1H-benzo[d]-imidazol-1-yl)piperidine-2,6-dione], for which the 50% effective concentration (EC50) worked out at 8 nM.
For `CNc1cc(=O)n(-c2ccnc3c2cc([C@H](C)N2CC=C(c4c(C)cc(C(=O)N5CCC(CN6CCN(Cc7ccc8c(c7)C7(CC7)C(=O)N8C7CCC(=O)NC7=O)C[C@@H]6C)CC5)cc4F)CC2)n3C)cc1OC` (stereo partly drawn) [Example 3u117, 3-(5′-(((S)-4-((1-(3-fluoro-4-(1-((S)-1-(4-(5-methoxy-4-(methylamino)-2-oxopyridin-1 (2H)-yl)-1-methyl-1H-pyrrolo[2,3-b]pyridin-2-yl)ethyl)-1,2,3,6-tetrahydropyridin-4-yl)-5-methylbenzoyl)piperidin-4-yl)methyl)-3-methylpiperazin-1-yl)methyl)-2′-oxospiro[cyclopropane-1,3′-indolin]-1′-yl)piperidine-2,6-dione], the EC50 came out at 1210 nM.
The compound `CNc1ccn(-c2ccnc3c2cc([C@H](C)N2CC=C(c4c(C)cc(C(=O)N5CCC(CN6CCN(Cc7ccc8c(c7)n(C7CC7)c(=O)n8C7CCC(=O)NC7=O)C[C@@H]6C)CC5)cc4F)CC2)n3C)c(=O)c1OC` (stereo partly drawn) [Example 3u135, 3-(3-cyclopropyl-5-(((S)-4-((1-(3-fluoro-4-(1-((S)-1-(4-(3-methoxy-4-(methylamino)-2-oxopyridin-1 (2H)-yl)-1-methyl-1H-pyrrolo[2,3-b]pyridin-2-yl)ethyl)-1,2,3,6-tetrahydropyridin-4-yl)-5-methylbenzoyl)piperidin-4-yl)methyl)-3-methylpiperazin-1-yl)methyl)-2-oxo-2,3-dihydro-1H-benzo[d]imidazol-1-yl)piperidine-2,6-dione] yielded a concentration for a half-maximal effect (EC50) of 185 nM.
Under `CNc1cc(=O)n(-c2ccnc3c2cc([C@H](C)N2CC=C(c4c(C)cc(C(=O)N5CCC(F)(CN6CCN(c7ccc8c(c7)C7(CC7)C(=O)N8C7CCC(=O)NC7=O)CC6)CC5)cc4F)CC2)n3C)cc1F` (stereo partly drawn) [Example 3u136, 3-(5′-(4-((4-fluoro-1-(3-fluoro-4-(1-((S)-1-(4-(5-fluoro-4-(methylamino)-2-oxopyridin-1 (2H)-yl)-1-methyl-1H-pyrrolo[2,3-b]pyridin-2-yl)ethyl)-1,2,3,6-tetrahydropyridin-4-yl)-5-methyl-benzoyl)piperidin-4-yl)methyl)piperazin-1-yl)-2′-oxospiro[cyclopropane-1,3′-indolin]-1′-yl)piperidine-2,6-dione] stands 16.4 nM.
On to `Cc1cc(C(=O)N2CCC(CN3CCN(c4cc5c(cc4F)n(C4CCC(=O)NC4=O)c(=O)n5C)CC3)CC2)cc(F)c1C1=CCN([C@@H](C)c2cc3c(-n4cc(F)c5c(c4=O)CCN5)ccnc3n2C)CC1` (stereo partly drawn) [Example 3u253, 3-(6-fluoro-5-(4-((1-(3-fluoro-4-(1-((S)-1-(4-(7-fluoro-4-oxo-1,2,3,4-tetrahydro-5H-pyrrolo[3,2-c]pyridin-5-yl)-1-methyl-1H-pyrrolo[2,3-b]pyridin-2-yl)ethyl)-1,2,3,6-tetrahydropyridin-4-yl)-5-methylbenzoyl)piperidin-4-yl)methyl)piperazin-1-yl)-3-methyl-2-oxo-2,3-dihydro-1H-benzo[d]imidazol-1-yl)piperidine-2,6-dione], for which the EC50 stood at 8.1 nM.
Then `CNc1ccn(-c2ccnc3c2cc([C@H](C)N2CC=C(c4c(C)cc(C(=O)N5CCC(CN6CCN(Cc7ccc8c(c7)C7(CCOCC7)C(=O)N8C7CCC(=O)NC7=O)CC6)CC5)cc4F)CC2)n3C)c(=O)c1` (stereo partly drawn) [Example 3u257, 3-(5-((4-((1-(3-fluoro-5-methyl-4-(1-((S)-1-(1-methyl-4-(4-(methylamino)-2-oxopyridin-1 (2H)-yl)-1H-pyrrolo[2,3-b]pyridin-2-yl)ethyl)-1,2,3,6-tetrahydropyridin-4-yl)benzoyl)-piperidin-4-yl)methyl)piperazin-1-yl)methyl)-2-oxo-2′,3′,5′,6′-tetrahydrospiro[indoline-3,4′-pyran]-1-yl)piperidine-2,6-dione], with 24.2 nM; and `CNc1ccn(-c2ccnc3c2cc([C@H](C)N2CC=C(c4c(C)cc(C(=O)N5CCn6c(nnc6C6CCN(c7ccc8c(c7)n(C)c(=O)n8C7CCC(=O)NC7=O)CC6)C5)cc4F)CC2)n3C)c(=O)c1` (stereo partly drawn) [Example 3u260, 3-(5-(4-(7-(3-fluoro-5-methyl-4-(1-((S)-1-(1-methyl-4-(4-(methylamino)-2-oxopyridin-1 (2H)-yl)-1H-pyrrolo[2,3-b]pyridin-2-yl)ethyl)-1,2,3,6-tetrahydropyridin-4-yl)benzoyl)-5,6,7,8-tetrahydro-[1,2,4]triazolo[4,3-a]pyrazin-3-yl)piperidin-1-yl)-3-methyl-2-oxo-2,3-dihydro-1H-benzo[d]imidazol-1-yl)piperidine-2,6-dione], with 11.2 nM.
The compound `CNc1nc(=O)n(-c2ccnc3c2cc([C@H](C)N2CC=C(c4c(C)cc(C(=O)N5CCC(CN6CCN(c7cc8c(cc7F)n(C7CCC(=O)NC7=O)c(=O)n8C)CC6)CC5)cc4F)CC2)n3C)cc1F` (stereo partly drawn) [Example 3u268, 3-(6-fluoro-5-(4-((1-(3-fluoro-4-(1-((S)-1-(4-(5-fluoro-4-(methylamino)-2-oxopyrimidin-1 (2H)-yl)-1-methyl-1H-pyrrolo[2,3-b]pyridin-2-yl)ethyl)-1,2,3,6-tetrahydropyridin-4-yl)-5-methylbenzoyl)piperidin-4-yl)methyl)piperazin-1-yl)-3-methyl-2-oxo-2,3-dihydro-1H-benzo[d]-imidazol-1-yl)piperidine-2,6-dione] gave an EC50 of 5.6 nM.
